The source made the active and inactive calls. How the calls were made is not given here.
Tested on: CCRIS mutagenicity, Ames/micronucleus/aberration tests
Test: CCRIS mutagenicity studies
[1] = Test System: AMES SALMONELLA TYPHIMURIUM, Strain/Indicator: TA98, Metabolic Activation: NONE, Method: PREINCUBATION
[2] = Test System: AMES SALMONELLA TYPHIMURIUM, Strain/Indicator: TA100, Metabolic Activation: NONE, Method: PREINCUBATION

Structure (SMILES): CC(O)CCl (configuration not stated)
- mutagenic call (Test System: AMES SALMONELLA TYPHIMURIUM, Strain/Indicator: TA97, Metabolic Activation: HAMSTER, LIVER, S-9, AROCLOR 1254 (10%), Method: PREINCUBATION): inactive; negative
- mutagenic call (Test System: AMES SALMONELLA TYPHIMURIUM, Strain/Indicator: TA97, Metabolic Activation: NONE, Method: PREINCUBATION): inactive; negative
- mutagenic call (Test System: AMES SALMONELLA TYPHIMURIUM, Strain/Indicator: TA97, Metabolic Activation: RAT, LIVER, S-9, AROCLOR 1254 (10%), Method: PREINCUBATION): inactive; negative
- mutagenic call (Test System: AMES SALMONELLA TYPHIMURIUM, Strain/Indicator: TA98, Metabolic Activation: HAMSTER LIVER S-9, AROCLOR 1254 (10%), Method: PREINCUBATION): inactive; negative
- mutagenic call (Test System: AMES SALMONELLA TYPHIMURIUM, Strain/Indicator: TA98, Metabolic Activation: HAMSTER, LIVER, S-9, AROCLOR 1254 (10%), Method: PREINCUBATION): inactive; negative
- mutagenic call (Test System: AMES SALMONELLA TYPHIMURIUM, Strain/Indicator: TA98, Metabolic Activation: NONE, Method: FLUCTUATION (MICROTITER)): inactive; negative
- mutagenic call [1]: inactive; negative
- mutagenic call (Test System: AMES SALMONELLA TYPHIMURIUM, Strain/Indicator: TA98, Metabolic Activation: RAT LIVER S-9, AROCLOR 1254 (10%), Method: PREINCUBATION): inactive; negative
- mutagenic call (Test System: AMES SALMONELLA TYPHIMURIUM, Strain/Indicator: TA98, Metabolic Activation: RAT LIVER S-9, AROCLOR 1254, Method: FLUCTUATION (MICROTITER)): inactive; negative
- mutagenic call (Test System: AMES SALMONELLA TYPHIMURIUM, Strain/Indicator: TA98, Metabolic Activation: RAT, LIVER, S-9, AROCLOR 1254 (10%), Method: PREINCUBATION): inactive; negative
- mutagenic call (Test System: AMES SALMONELLA TYPHIMURIUM, Strain/Indicator: TA100, Metabolic Activation: HAMSTER, LIVER, S-9, AROCLOR 1254 (10%), Method: PREINCUBATION): inactive; negative
- mutagenic call [2]: inactive; negative
- mutagenic call (Test System: AMES SALMONELLA TYPHIMURIUM, Strain/Indicator: TA100, Metabolic Activation: RAT, LIVER, S-9, AROCLOR 1254 (10%), Method: PREINCUBATION): inactive; negative
- mutagenic call (Test System: AMES SALMONELLA TYPHIMURIUM, Strain/Indicator: TA1535, Metabolic Activation: HAMSTER LIVER S-9, AROCLOR 1254 (10%), Method: PREINCUBATION): active; positive
- mutagenic call (Test System: AMES SALMONELLA TYPHIMURIUM, Strain/Indicator: TA1535, Metabolic Activation: HAMSTER, LIVER, S-9, AROCLOR 1254 (10%), Method: PREINCUBATION): active; positive
- mutagenic call (Test System: AMES SALMONELLA TYPHIMURIUM, Strain/Indicator: TA1535, Metabolic Activation: NONE, Method: PREINCUBATION): active; positive
- mutagenic call (Test System: AMES SALMONELLA TYPHIMURIUM, Strain/Indicator: TA1535, Metabolic Activation: RAT LIVER S-9, AROCLOR 1254 (10%), Method: PREINCUBATION): active; positive
- mutagenic call (Test System: AMES SALMONELLA TYPHIMURIUM, Strain/Indicator: TA1535, Metabolic Activation: RAT, LIVER, S-9, AROCLOR 1254 (10%), Method: PREINCUBATION): active; positive
- mutagenic call (Test System: AMES SALMONELLA TYPHIMURIUM, Strain/Indicator: TA1537, Metabolic Activation: HAMSTER LIVER S-9, AROCLOR 1254 (10%), Method: PREINCUBATION): inactive; negative
- mutagenic call (Test System: AMES SALMONELLA TYPHIMURIUM, Strain/Indicator: TA1537, Metabolic Activation: HAMSTER, LIVER, S-9, AROCLOR 1254 (10%), Method: PREINCUBATION): inactive; negative
- mutagenic call (Test System: AMES SALMONELLA TYPHIMURIUM, Strain/Indicator: TA1537, Metabolic Activation: NONE, Method: FLUCTUATION (MICROTITER)): inactive; negative
- mutagenic call (Test System: AMES SALMONELLA TYPHIMURIUM, Strain/Indicator: TA1537, Metabolic Activation: NONE, Method: PREINCUBATION): inactive; negative
- mutagenic call (Test System: AMES SALMONELLA TYPHIMURIUM, Strain/Indicator: TA1537, Metabolic Activation: RAT LIVER S-9, AROCLOR 1254 (10%), Method: PREINCUBATION): inactive; negative
- mutagenic call (Test System: AMES SALMONELLA TYPHIMURIUM, Strain/Indicator: TA1537, Metabolic Activation: RAT LIVER S-9, AROCLOR 1254, Method: FLUCTUATION (MICROTITER)): inactive; negative
- mutagenic call (Test System: AMES SALMONELLA TYPHIMURIUM, Strain/Indicator: TA1537, Metabolic Activation: RAT, LIVER, S-9, AROCLOR 1254 (10%), Method: PREINCUBATION): inactive; negative
- mutagenic call (Test System: AMES SALMONELLA TYPHIMURIUM, Strain/Indicator: TA7001, Metabolic Activation: NONE, Method: FLUCTUATION (MICROTITER)): inactive; negative
- mutagenic call (Test System: AMES SALMONELLA TYPHIMURIUM, Strain/Indicator: TA7001, Metabolic Activation: RAT LIVER S-9, AROCLOR 1254, Method: FLUCTUATION (MICROTITER)): inactive; negative
- mutagenic call (Test System: AMES SALMONELLA TYPHIMURIUM, Strain/Indicator: TA7002, Metabolic Activation: NONE, Method: FLUCTUATION (MICROTITER)): inactive; negative
- mutagenic call (Test System: AMES SALMONELLA TYPHIMURIUM, Strain/Indicator: TA7002, Metabolic Activation: RAT LIVER S-9, AROCLOR 1254, Method: FLUCTUATION (MICROTITER)): inactive; negative
- mutagenic call (Test System: AMES SALMONELLA TYPHIMURIUM, Strain/Indicator: TA7003, Metabolic Activation: NONE, Method: FLUCTUATION (MICROTITER)): inactive; negative
- mutagenic call (Test System: AMES SALMONELLA TYPHIMURIUM, Strain/Indicator: TA7003, Metabolic Activation: RAT LIVER S-9, AROCLOR 1254, Method: FLUCTUATION (MICROTITER)): inactive; negative
- mutagenic call (Test System: AMES SALMONELLA TYPHIMURIUM, Strain/Indicator: TA7004, Metabolic Activation: NONE, Method: FLUCTUATION (MICROTITER)): inactive; negative
- mutagenic call (Test System: AMES SALMONELLA TYPHIMURIUM, Strain/Indicator: TA7004, Metabolic Activation: RAT LIVER S-9, AROCLOR 1254, Method: FLUCTUATION (MICROTITER)): inactive; negative
- mutagenic call (Test System: AMES SALMONELLA TYPHIMURIUM, Strain/Indicator: TA7005, Metabolic Activation: NONE, Method: FLUCTUATION (MICROTITER)): inactive; negative
- mutagenic call (Test System: AMES SALMONELLA TYPHIMURIUM, Strain/Indicator: TA7005, Metabolic Activation: RAT LIVER S-9, AROCLOR 1254, Method: FLUCTUATION (MICROTITER)): inactive; negative
- mutagenic call (Test System: AMES SALMONELLA TYPHIMURIUM, Strain/Indicator: TA7006, Metabolic Activation: NONE, Method: FLUCTUATION (MICROTITER)): inactive; negative
- mutagenic call (Test System: AMES SALMONELLA TYPHIMURIUM, Strain/Indicator: TA7006, Metabolic Activation: RAT LIVER S-9, AROCLOR 1254, Method: FLUCTUATION (MICROTITER)): inactive; negative

Structure (SMILES): CC(=O)Nc1ccc(Nc2ccc([N+](=O)[O-])cc2)cc1
- mutagenic call (Test System: AMES SALMONELLA TYPHIMURIUM, Strain/Indicator: TA98(NR), Metabolic Activation: NONE, Method: PREINCUBATION): inactive; negative
- mutagenic call [1]: active; positive
- mutagenic call (Test System: AMES SALMONELLA TYPHIMURIUM, Strain/Indicator: TA98, Metabolic Activation: RAT, LIVER, S-9, AROCLOR 1254, Method: PREINCUBATION): active; positive

Structure (SMILES): O=C(O)c1ccc(O)c2c1C(=O)c1cc(O)cc(O)c1C2=O
- mutagenic call (Test System: AMES SALMONELLA TYPHIMURIUM, Strain/Indicator: TA1537, Metabolic Activation: NONE, Method: STANDARD PLATE): inactive; negative
- mutagenic call (Test System: AMES SALMONELLA TYPHIMURIUM, Strain/Indicator: TA1537, Metabolic Activation: RAT, LIVER, S-9, PCB, Method: STANDARD PLATE): inactive; negative

Structure (SMILES): O=P1(NCCCl)OCCCN1CCCl (configuration not stated)
- mutagenic call (Test System: AMES SALMONELLA TYPHIMURIUM, Strain/Indicator: TA100, Metabolic Activation: NADPH, Method: PREINCUBATION): active; positive
- mutagenic call [2]: active; positive
- mutagenic call (Test System: AMES SALMONELLA TYPHIMURIUM, Strain/Indicator: TA100, Metabolic Activation: RAT, LIVER, HEPATOCYTES, PHENOBARBITAL, Method: PREINCUBATION): inactive; negative
- mutagenic call (Test System: AMES SALMONELLA TYPHIMURIUM, Strain/Indicator: TA100, Metabolic Activation: RAT, LIVER, S-9, AROCLOR 1254, Method: STANDARD PLATE): active; positive
- mutagenic call (Test System: AMES SALMONELLA TYPHIMURIUM, Strain/Indicator: TA100, Metabolic Activation: RAT, LIVER, S-9, PHENOBARBITAL, NADPH, Method: PREINCUBATION): active; positive
- mutagenic call (Test System: AMES SALMONELLA TYPHIMURIUM, Strain/Indicator: TA100, Metabolic Activation: RAT, LIVER, S-9, PHENOBARBITAL, Method: PREINCUBATION): active; positive
- mutagenic call (Test System: AMES SALMONELLA TYPHIMURIUM, Strain/Indicator: TA1535, Metabolic Activation: RAT, LIVER, HEPATOCYTES, PHENOBARBITAL, Method: PREINCUBATION): active; positive
- mutagenic call (Test System: AMES SALMONELLA TYPHIMURIUM, Strain/Indicator: TA1535, Metabolic Activation: RAT, LIVER, S-9, AROCLOR 1254, Method: STANDARD PLATE): active; positive

Structure (SMILES): O=C(/C=C/c1ccc(O)cc1)c1ccc(O)cc1O
- mutagenic call (Test System: Ames Salmonella typhimurium, Strain/Indicator: TA102, Metabolic Activation: None, Method: Preincubation): inactive; negative
- mutagenic call (Test System: Ames Salmonella typhimurium, Strain/Indicator: TA102, Metabolic Activation: Rat, Liver, S-9, Aroclor 1254 in 0.154 M KCl, Method: Preincubation): active; positive

— PubChem BioAssay AID1259407 (Chemical Carcinogenesis Research Information System (CCRIS), 2018)
